Results as given in patent US9884812B2, “Use of DDX3X inhibitors for the treatment of pneumovirus infections” (priority 2014, dated 2018).
Like-named read-outs stand apart in the source and are kept apart here.

Key:
[1] = Solubility in cell medium; type: physicochemical; conditions: solution of ligand in DMSO (20 mM) diluted in cell media to 100 μM; scale from 'very poor' (almost insoluble) to 'very good' (freely soluble over extended periods at 4° C.)
HEp2 or BSC1 cells = assay: Toxicity to cells in the TCID50 screen (mock control); type: cell-based
Procedure: This method provides a rapid approach to initially screen compounds and was developed as an increased number of compounds were synthesised. […] Virus was then added over 5 different half log dilutions starting at a multiplicity of infection of 0.02 plus mock control. Three dilutions of compound plus a DMSO control were screened per plate. […] Identical plate repeats for each compound dilution were fixed in subsequent days as indicated.

hRSV (strain A2) = assay: Plaque inhibition assay, hRSV; type: cell-based, human respiratory syncytial virus
Procedure: Example: Plaque inhibition assay
An identical assay procedure was carried out for hRSV (strain A2) bovine RS (strain Snook) and PVM (strain 15). Virus stocks were diluted 10 fold in GMEM (Invitrogen) so that the wells containing cells received sufficient virus to generate approximately 2000, 200 and 20 plaques per well.
The overlay medium also contained the compound to be tested at appropriate concentrations. Typically the 6 concentrations of the test compounds used were: 100 μM, 31.6 μM, 10 μM, 3.16 μM, 1 μM and 0.316 μM.
Stocks of the test compounds were prepared in DMSO (Sigma) (carrier). Each stock compound was diluted 1 in 200 in overlay medium to give dilutions stated above.
Cells of a standard cell line known to support pneumovirus replication (typically HEp2 or BSC1 cells) were grown in standard 12 well plates at 37° C. in an atmosphere of 5% (v/v) CO2 until confluent. Medium was aspirated from the cells and replaced with 200 μl aliquots of virus. Aliquots were prepared by diluting virus stocks 10-fold in GMEM (Invitrogen) as described above with no FCS. A mock (no virus) was also set up to test cell viability. The virus was incubated with the cells for 1 hour at 33° C. with gentle rocking every 5-10 minutes. The inocula were removed and 2 ml of overlay medium was added. Overlay medium was either test (plus compound) or control (medium alone or medium containing DMSO). The plates were incubated at 33° C. for 4-8 days to allow plaques to develop as indicated. A volume of 1 ml of additional overlay medium (containing the test compound as appropriate) was added every 3 days. All virus dilutions were carried out with each concentration of test compound, or treated as controls, and each was carried out in triplicate.
Following incubation, cells were fixed by addition of an equal volume of 4% (v/v) glutaraldehyde (Sigma) in PBS with further incubation for a minimum of 2 hours. The fixing solution was washed off under a slow flowing stream of water and 1 ml of crystal violet (0.075% w/v: Sigma) was added and left for 20 minutes at room temperature. The crystal violet was removed and the fixed cell monolayers washed. Plates were air dried. Plaques counts were recorded from wells with >20 and <200 in number. These numbers provide the most robust statistical reliability for viable plaque counts.
This experimental approach screens the ability of compounds to block the formation of plaques.

RSV = assay: 96 well plate TCID50 (cellular RSV TCID50 assay); type: cell-based; conditions: summary of activities in cellular RSV TCID50 assay; symbols − to +++++ not defined
Procedure: This method provides a rapid approach to initially screen compounds and was developed as an increased number of compounds were synthesised. Cells of a standard cell line known to support pneumovirus replication (typically HEp2 or BSC1 cells) were grown to 95% confluence in a 96 well plate. Virus was then added over 5 different half log dilutions starting at a multiplicity of infection of 0.02 plus mock control. Three dilutions of compound plus a DMSO control were screened per plate. […] Identical plate repeats for each compound dilution were fixed in subsequent days as indicated.
Stained plates were read at 595 nm, higher optical density (OD) readings indicate more viable cells remain.

[2] = cellular RSV TCID50 assay tables

Row | SMILES | Solubility in cell medium [1] | Toxicity (HEp2 or BSC1 cells; [2]) | also measured
1 | N#Cc1ccc(NC(=O)Nc2ccccn2)cc1 [Compound 8, 3-(4-cyanophenyl)-1-(pyridin-2-yl)urea] | moderate | toxic at 100, 32, 10 μM | –
2 | N#Cc1cccc(NC(=O)Nc2ccccn2)c1 [Compound 11, 3-(3-cyanophenyl)-1-(pyridin-2-yl)urea] | moderate | toxic at 100 μM | –
3 | N#Cc1cccc(NC(=O)Nc2ncccn2)c1 [Compound 12, 3-(3-cyanophenyl)-1-(pyrimidin-2-yl)urea] | poor | toxic at 100 μM | –
4 | COc1cccc(NC(=O)Nc2ccccc2C)c1 [Compound 13, 3-(3-methoxyphenyl)-1-(2-methylphenyl)urea] | good | toxic at 100 μM | –
5 | Cc1ccccc1NC(=O)Nc1cccc(Br)c1 [Compound 16, 1-(3-bromophenyl)-3-(2-methylphenyl)urea] | moderate | toxic at 100 μM | –
6 | Cc1ccccc1NC(=S)Nc1cccc([N+](=O)[O-])c1 [Compound 17, 3-(2-methylphenyl)-1-(3-nitrophenyl)thiourea] | good | toxic at 100 μM | –
7 | CC1CCCCC1NC(=O)Nc1cccc([N+](=O)[O-])c1 (stereo not drawn) [Compound 21, 3-(2-methylcyclohexyl)-1-(3-nitrophenyl)urea] | moderate | toxic at 100 μM | –
8 | CCCCCCCCNC(=O)Nc1ccccc1C [Compound 25, 1-(2-methylphenyl)-3-octylurea] | moderate | low | –
9 | Cc1ccccc1NC(=O)N1CCOCC1 [Compound 27, N-(2-methylphenyl)morpholine-4-carboxamide] | good | low | –
10 | CCCCCCCCNC(=S)Nc1ccccc1C [Compound 28, 1-(2-methylphenyl)-3-octylthiourea] | good | low | –
11 | Cc1ccccc1NC(=S)NCCN(C)C [Compound 29, 3-[2-(dimethylamino)ethyl]-1-(2-methylphenyl)thiourea] | good | low | –
12 | Cc1ccccc1NC(=S)N1CCOCC1 [Compound 30, N-(2-methylphenyl)morpholine-4-carbothioamide] | very good | low | –
13 | O=C(Nc1cccc(NC(=O)Nc2cccc([N+](=O)[O-])c2)c1)Nc1cccc([N+](=O)[O-])c1 [Compound 31, 1,1′-(1,3-phenylene)bis(3-(3-nitrophenyl)urea)] | very poor | – | Toxicity (HEp2 or BSC1 cells): toxic at 100 μM
14 | CSc1cccc(NC(=O)Nc2cccc(NC(=O)Nc3cccc(SC)c3)c2)c1 [Compound 33, 1,1′-(1,3-phenylene)bis(3-(3-(methylthio)phenyl)urea)] | poor | toxic at 100 μM | –
15 | COc1cccc(NC(=O)Nc2cccc(NC(=O)Nc3cccc(OC)c3)c2)c1 [Compound 34, 1,1′-(1,3-phenylene)bis(3-(3-methoxyphenyl)urea)] | poor | toxic at 100 μM | –
16 | Cc1ccccc1NC(=O)NCCCOCCOCCOCCCNC(=O)Nc1ccccc1C [Compound 38, 1-(2-methylphenyl)-3-(3-{2-[2-(3-{[(2-methylphenyl)carbamoyl]-amino}propoxy)ethoxy]ethoxy}propyl)urea] | good | toxic at 50 μM | –
17 | Cc1ccccc1NC(=O)Nc1ccc(SC(F)(F)F)cc1 [Compound 42, 1-(o-tolyl)-3-(4-((trifluoromethyl)thio)phenyl)urea] | Good | Very toxic at 100 μM | Activity (RSV): Plaques reduced
18 | Cc1ccccc1NC(=O)Nc1ccc(OC(F)(F)F)cc1 [Compound 43, 1-(o-tolyl)-3-(4-(trifluoromethoxy)phenyl)urea] | Good | Toxic at 100 μM | Activity (RSV): Plaques reduced

More lines, main results first:

Row | Solubility in cell medium [1] | SMILES | Toxicity (HEp2 or BSC1 cells; [2]) | also measured
19 | good | CC(=O)c1cccc(NC(=O)Nc2ccccc2C)c1 [Compound 2, 1-(3-acetylphenyl)-3-(2-methylphenyl)urea] | very low | –
20 | good | Cc1ccccc1NC(=O)Nc1cccc(C#N)c1 [Compound 3, 3-(3-cyanophenyl)-1-(2-methylphenyl)urea] | low | Plaque size relative to DMSO control (hRSV (strain A2); hRSV plaque assay): much smaller; Plaque size (hRSV (strain A2); hRSV, HEp2 cells, 5 days, at 31.6 μM and to some extent 10 μM): very small; IC50 (hRSV (strain A2); human respiratory syncytial virus, HEp-2, 120 h, hRSV, HEp2 cells, Day 5, read-out: IC50 (plaque number vs DMSO control)): ~50 µM
21 | good | Cc1ccccc1NC(=O)Nc1cccc([S+](C)[O-])c1 (stereo not drawn) [Compound 5, 3-(3-methanesulfinylphenyl)-1-(2-methylphenyl)urea] | very low | –
22 | moderate | N#Cc1cccc(NC(=O)Nc2cccnc2)c1 [Compound 7, 3-(3-cyanophenyl)-1-(pyridin-3-yl)urea] | low | –
23 | good | Cc1ccccc1NC(=O)Nc1ccccn1 [Compound 9, 1-(2-methylphenyl)-3-(pyridin-2-yl)urea] | low | –
24 | moderate | Cc1ccccc1NC(=O)Nc1cccnc1 [Compound 10, 1-(2-methylphenyl)-3-(pyridin-3-yl)urea] | low | –
25 | good | CSc1ccc(NC(=O)Nc2ccccc2C)cc1 [Compound 14, 3-(2-methylphenyl)-1-[4-(methylsulfanyl)phenyl]urea] | low | –
26 | good | COc1ccc(NC(=O)Nc2ccccc2C)cc1 [Compound 15, 1-(4-methoxyphenyl)-3-(2-methylphenyl)urea] | low | –
27 | very good | Cc1ccccc1NC(=S)Nc1cccc(C#N)c1 [Compound 18, 1-(3-cyanophenyl)-3-(2-methylphenyl)thiourea] | low | –
28 | moderate | CC1CCCCC1NC(=O)Nc1ccc(C#N)cc1 (stereo not drawn) [Compound 22, 1-(4-cyanophenyl)-3-(2-methylcyclohexyl)urea] | low | –
29 | moderate | CC1CCCCC1NC(=O)Nc1cccc(C#N)c1 (stereo not drawn) [Compound 23, 1-(3-cyanophenyl)-3-(2-methylcyclohexyl)urea] | low | –
30 | good | CCCCCCCCNC(=O)Nc1ccc(C#N)cc1 [Compound 24, 1-(4-cyanophenyl)-3-octylurea] | low | –
31 | good | Cc1ccccc1NC(=O)NCCN(C)C [Compound 26, 3-[2-(dimethylamino)ethyl]1-(2-methylphenyl)urea] | low | –
32 | Moderate at 100 μM | Cc1ccccc1NC(=O)Nc1ccc(Br)cc1 [Compound 41, 1-(4-bromophenyl)-3-(o-tolyl)urea] | Low | –
33 | Moderate at 100 μM | Cc1ccccc1NC(=O)Nc1ccc(I)cc1 [Compound 44, 1-(4-iodophenyl)-3-(o-tolyl)urea] | Low | Activity (RSV): Inactive
34 | Good | COc1ccc(NC(=O)Nc2ccccc2C)cc1OC [Compound 45, 1-(3,4-dimethoxyphenyl)-3-(o-tolyl)urea] | Low | Activity (RSV): Inactive
